Experimental data as given in publication PMC10004559, “Identification of residues involved in allosteric signal transmission from amino acid binding site of pyruvate kinase muscle isoform 2” (PLOS ONE, 2023).
Values joined by “and” are separate entries in the source; they are usually repeats but may differ in a detail not shown here. Equal entries are not always repeated. Where two headings read alike, the source gives them in different places.

Experiments:
[1] = biological target: T1, wtPKM2 (Homo sapiens, UniProt P14618); details: cited from earlier work
T1 construct: made in house; host or cells: E. coli BL21(DE3) pLysS

[2] = biological target: T2, PKM2 N75L (Homo sapiens, UniProt P14618, N75L); experiment: Ligand binding assay, intrinsic tryptophan fluorescence quenching; details: 1.6 μM PKM2 N75L, no AA ligand; read-out: Kd, ADP as titrant
T2 construct: made in house; host or cells: E. coli BL21(DE3) pLysS
Protocol: (§1) The decrease of intrinsic tryptophan fluorescence with increasing substrate concentration was measured using a Cary Eclipse Fluorescence Spectrophotometer (Agilent Technologies, Santa Clara, CA). To determine the binding affinity of wtPKM2 and the variants for the AAs mentioned previously, the enzymes were dissolved in the buffer followed by monitoring fluorescence quenching as the AA concentration was increased. The wavelength used to excite PKM2 was set at 295 nm, while the emission wavelength was 340 nm with slit widths of 5 and 10 nm, respectively. The fluorescence intensity values were used to calculate fractional saturation, which was fitted to the one-site specific binding Eq (3), or the Hill Eq (4) using GraphPad Prism (San Diego, CA), Y=Bmax×X/Kd+X (3) Y=Bmax×x^h/Kdh+x^h (4) where Bmax is maximum binding, Y is fractional saturation, h is the Hill coefficient, Kd is dissociation constant, and X is ligand concentration.

[3] = biological target: T3, PKM2 R106A (Homo sapiens, UniProt P14618, R106A); experiment: as above; details: for weakening of ADP binding affinity versus absence of any AAs: PKM2 R106A in the presence of the labelled AA; for decrease of affinity for the AA relative to wtPKM2: PKM2 R106A versus wtPKM2
T3 construct: made in house; host or cells: E. coli BL21(DE3) pLysS
Protocol: as §1, with “All ligand binding studies were conducted in a buffer containing 1.6 μM enzyme dissolved in 20 mM Tris-HCl (pH 7.5) and 150 mM KCl. […] The decrease” for “The decrease”

[4] = biological target: T4, PKM2 N70D (Homo sapiens, UniProt P14618, N70D); experiment: as above; parameters: made in house; host or cells: E. coli BL21(DE3) pLysS; details: no AA ligand, read-out: Kd, ADP as titrant
Protocol: as §1, with “All ligand binding studies were conducted in a buffer containing 1.6 μM enzyme dissolved in 20 mM Tris-HCl (pH 7.5) and 150 mM KCl. […] The decrease” for “The decrease”

[5] = biological target: T1, wtPKM2; experiment: PKM2-LDH coupled pyruvate kinase activity assay; assay type: biochemical; details: ADP 0.8 mM; for Vmax / kcat: 10 nM wtPKM2 in presence of 2 mM of the labelled AA, PEP varied
Protocol: (§3) The decrease in absorbance at 340 nm was recorded for a minute to monitor the progress of the reactions.

[6] = biological target: T2, PKM2 N75L; experiment: PKM2-LDH coupled pyruvate kinase activity assay; assay type: biochemical; details: 4200 nM PKM2 N75L in presence of 2 mM of the labelled AA; PEP 0.025–8 mM, ADP 0.8 mM
Protocol: as §3

[7] = biological target: T4, PKM2 N70D; experiment: Gel-filtration study of oligomeric state; parameters: made in house; host or cells: E. coli BL21(DE3) pLysS; details: 0.1 mg/ml PKM2 N70D, 10 mM AA
Protocol: (§2) The flow rate was kept constant at 0.5 ml/min using an AKTA Pure FPLC system (GE Healthcare Life Sciences, Marlborough, MA). All AA concentrations used in the experiments were fixed at 10 mM. Column calibration was conducted using gel-filtration molecular weight standards (Bio-Rad) containing bovine thyroglobulin (670 kDa), bovine γ-globulin (158 kDa), chicken ovalbumin (44 kDa), horse myoglobin (17 kDa), and vitamin B12 (1.35 kDa). The eluted protein peak was observed using UV absorbance at 280 nm. To normalize the lowest and highest intensity value, they were set to 0% and 100%, respectively, which was plotted against elution volume in GraphPad Prism (San Diego, CA).

[8] = biological target: T1, wtPKM2; experiment: Gel-filtration study of oligomeric state; details: 0.1 mg/ml wtPKM2, 10 mM AA
Protocol: as §2

[9] = biological target: T3, PKM2 R106A; experiment: Gel-filtration study of oligomeric state; details: 0.1 mg/ml PKM2 R106A, 10 mM AA
Protocol: as §2

[10] = biological target: T2, PKM2 N75L; experiment: Gel-filtration study of oligomeric state; details: 0.1 mg/ml PKM2 N75L, 10 mM AA
Protocol: as §2

[11] = biological target: T4, PKM2 N70D; experiment: PKM2-LDH coupled pyruvate kinase activity assay; details: 65 nM PKM2 N70D in presence of 2 mM of the labelled AA; PEP 0.025–8 mM, ADP 0.8 mM
Protocol: as §3

[12] = biological target: T3, PKM2 R106A; experiment: PKM2-LDH coupled pyruvate kinase activity assay; assay type: biochemical; details: for Vmax / kcat: 50 nM PKM2 R106A in presence of 2 mM of the labelled AA (Val 10 mM), PEP 0.025–8 mM, ADP 0.8 mM, Cys data fitted with allosteric sigmoidal equation; for decrease of catalytic efficiency of PKM2 R106A: in the presence of Val (10 mM) and Cys (2 mM), versus no AA
Protocol: as §3

[13] = biological target: T1, wtPKM2; parameters: method as in PMID 32144209; details: wtPKM2 in the presence of Val; cited from earlier work
[14] = 2 mM AA, 10 nM enzyme, PEP 0.15–8 mM, versus no AA
[15] = 1.6 μM PKM2 R106A, read-out: Kd for the AA (AA as titrant)

T4 sequence (P14618 whole entry N70D): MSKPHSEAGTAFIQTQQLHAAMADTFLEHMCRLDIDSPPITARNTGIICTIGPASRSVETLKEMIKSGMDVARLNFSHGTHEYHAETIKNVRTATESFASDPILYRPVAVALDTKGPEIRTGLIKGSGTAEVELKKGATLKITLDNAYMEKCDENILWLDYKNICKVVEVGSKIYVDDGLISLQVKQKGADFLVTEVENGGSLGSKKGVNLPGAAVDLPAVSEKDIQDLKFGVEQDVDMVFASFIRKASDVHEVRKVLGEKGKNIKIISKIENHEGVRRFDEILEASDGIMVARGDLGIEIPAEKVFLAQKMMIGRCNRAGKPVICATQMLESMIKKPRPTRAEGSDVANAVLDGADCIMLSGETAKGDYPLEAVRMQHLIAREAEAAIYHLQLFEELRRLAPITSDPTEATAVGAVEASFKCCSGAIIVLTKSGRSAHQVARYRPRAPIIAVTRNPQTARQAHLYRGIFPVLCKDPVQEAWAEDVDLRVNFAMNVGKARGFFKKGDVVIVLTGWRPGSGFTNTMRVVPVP
T2 sequence (P14618 whole entry N75L): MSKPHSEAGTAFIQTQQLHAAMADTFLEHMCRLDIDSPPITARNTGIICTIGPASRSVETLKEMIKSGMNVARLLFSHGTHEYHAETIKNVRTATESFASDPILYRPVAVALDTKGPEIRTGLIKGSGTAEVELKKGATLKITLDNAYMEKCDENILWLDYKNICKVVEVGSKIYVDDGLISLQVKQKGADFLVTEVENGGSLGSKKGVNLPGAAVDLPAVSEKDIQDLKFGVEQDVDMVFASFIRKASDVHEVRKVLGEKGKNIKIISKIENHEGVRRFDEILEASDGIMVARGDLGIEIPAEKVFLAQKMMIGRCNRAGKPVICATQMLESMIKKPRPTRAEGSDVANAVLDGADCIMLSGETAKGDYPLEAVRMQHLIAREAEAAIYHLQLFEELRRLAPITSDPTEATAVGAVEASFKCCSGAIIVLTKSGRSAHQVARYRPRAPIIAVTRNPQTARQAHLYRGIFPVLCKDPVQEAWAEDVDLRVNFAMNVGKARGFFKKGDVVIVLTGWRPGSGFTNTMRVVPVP
T1 sequence (P14618 whole entry): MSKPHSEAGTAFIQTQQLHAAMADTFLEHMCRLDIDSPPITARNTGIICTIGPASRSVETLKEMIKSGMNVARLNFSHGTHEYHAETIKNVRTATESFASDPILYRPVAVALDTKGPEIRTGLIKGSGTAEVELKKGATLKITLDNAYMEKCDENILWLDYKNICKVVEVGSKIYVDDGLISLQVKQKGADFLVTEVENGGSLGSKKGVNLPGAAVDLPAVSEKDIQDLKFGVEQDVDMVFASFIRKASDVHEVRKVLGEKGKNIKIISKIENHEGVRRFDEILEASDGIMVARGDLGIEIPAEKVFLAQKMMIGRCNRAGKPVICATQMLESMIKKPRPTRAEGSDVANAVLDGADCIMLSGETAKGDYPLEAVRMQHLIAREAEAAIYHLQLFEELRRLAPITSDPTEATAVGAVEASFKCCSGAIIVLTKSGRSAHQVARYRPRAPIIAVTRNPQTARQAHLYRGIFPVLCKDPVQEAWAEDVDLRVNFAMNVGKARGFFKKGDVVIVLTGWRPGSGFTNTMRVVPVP
T3 sequence (P14618 whole entry R106A): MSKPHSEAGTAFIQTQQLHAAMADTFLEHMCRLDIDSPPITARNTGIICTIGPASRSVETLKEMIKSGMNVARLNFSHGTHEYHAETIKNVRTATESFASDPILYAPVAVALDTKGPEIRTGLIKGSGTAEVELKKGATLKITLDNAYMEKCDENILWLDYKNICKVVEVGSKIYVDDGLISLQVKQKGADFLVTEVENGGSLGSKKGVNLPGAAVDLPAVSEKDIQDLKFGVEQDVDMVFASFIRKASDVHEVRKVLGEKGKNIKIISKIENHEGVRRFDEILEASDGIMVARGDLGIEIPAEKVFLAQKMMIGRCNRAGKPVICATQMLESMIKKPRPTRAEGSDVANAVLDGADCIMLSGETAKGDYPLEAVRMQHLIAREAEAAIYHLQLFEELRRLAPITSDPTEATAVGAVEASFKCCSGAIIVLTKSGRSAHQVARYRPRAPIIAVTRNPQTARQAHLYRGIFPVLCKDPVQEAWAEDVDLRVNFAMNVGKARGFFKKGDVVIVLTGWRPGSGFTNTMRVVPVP

Compound	Vmax [5] [µM/min]	kcat [5]	Vmax [6] [µM/min]	kcat [6]	oligomeric state change [7]	Kd [3, 15] [µM]	decrease of affinity for the AA relative to wtPKM2 [3]	Vmax [11] [µM/min]	kcat [11]	Vmax [12] [µM/min]	kcat [12]	other results
C=C(OP(=O)(O)O)C(=O)O [PEP, phosphoenolpyruvate]												Kd ([1]; read-out: Kd, PEP as titrant, […] wtPKM2, no AA ligand, marked (2) in S2 Table): 10 ± 2 µM
Nc1ncnc2c1ncn2[C@@H]1O[C@H](COP(=O)(O)OP(=O)(O)O)[C@@H](O)[C@H]1O [ADP, adenosine diphosphate]												Kd [2]: 449 ± 48 µM; Kd ([3]; 1.6 μM PKM2 R106A, no AA ligand, read-out: Kd, ADP as titrant): 257 ± 24 µM; Kd ([1]; […] wtPKM2, no AA ligand, marked (2) in S2 Table, read-out: Kd, ADP as titrant): 237 ± 54 µM; Kd [4]: 644 ± 154 µM
O=C(COP(=O)(O)O)[C@@H](O)[C@H](O)[C@H](O)COP(=O)(O)O [FBP, fructose-1,6-bisphosphate]												Kd ([1]; wtPKM2, read-out: Kd for FBP): 0.00098 µM and 0.001 µM

Now from value to compound, other results behind:

Vmax [5] [µM/min]	kcat [5]	Vmax [6] [µM/min]	kcat [6]	oligomeric state change [7]	Kd [3, 15] [µM]	decrease of affinity for the AA relative to wtPKM2 [3]	Vmax [11] [µM/min]	kcat [11]	Vmax [12] [µM/min]	kcat [12]	Compound	other results
65 ± 7	6.5±0.7 ×10^3 min^-1	33 ± 3	0.008±0.0 ×10^3 min^-1	did not change the oligomeric state	36	2–4 fold	334 ± 15	5.1±0.2 ×10^3 min^-1	291 ± 9	5.8±0.2 ×10^3 min^-1	N[C@@H](CS)C(=O)O [Cys, cysteine]	decrease of kcat/Km of wtPKM2 [5, 14]: ~ 4 fold; weakening of ADP binding affinity versus absence of any AAs [3]: ~ 10 fold; oligomeric state change [8]: shift from an active tetramer to a mixture of tetramer and dimer/monomer equilibrium; oligomeric state change [9]: resulted in a mixture of tetramer and dimer/monomer equilibrium; oligomeric state change [10]: the dimer/monomer fraction increased; decrease of catalytic efficiency of PKM2 R106A [12]: 2–7 fold
113 ± 4	11.3±0.4 ×10^3 min^-1	50 ± 2	0.012±0.0 ×10^3 min^-1	dimer/monomer fraction decreased		2–4 fold	340 ± 8	5.2±0.3 ×10^3 min^-1	318 ± 8	6.3±0.2 ×10^3 min^-1	NC(=O)C[C@H](N)C(=O)O [Asn, asparagine]	increase of kcat/Km of wtPKM2 [5, 14]: ~ 8 fold; Kd ([3]; […] PKM2 R106A, read-out: Kd for the AA (AA as titrant)): 42 ± 10 µM
74 ± 5	7.4±0.5 ×10^3 min^-1	34 ± 2	0.008±0.0 ×10^3 min^-1	did not change the oligomeric state	~1600	2–4 fold	324 ± 37	4.9±0.6 ×10^3 min^-1	346 ± 12	6.9±0.2 ×10^3 min^-1	CC(C)[C@H](N)C(=O)O [Val, valine]	decrease of kcat/Km of wtPKM2 [5, 14]: ~ 4 fold; oligomeric state change [13]: shift from an active tetramer to a mixture of tetramer and dimer/monomer equilibrium; weakening of ADP binding affinity versus absence of any AAs [3]: ~ 10 fold; oligomeric state change [9]: resulted in a mixture of tetramer and dimer/monomer equilibrium; oligomeric state change [10]: the dimer/monomer fraction increased; decrease of catalytic efficiency of PKM2 R106A [12]: 2–7 fold
104 ± 2	10.4±0.2 ×10^3 min^-1	51 ± 3	0.012±0.0 ×10^3 min^-1	dimer/monomer fraction decreased	~70		307 ± 10	4.7±0.1 ×10^3 min^-1	295 ± 6	5.9±0.1 ×10^3 min^-1	N[C@@H](CC(=O)O)C(=O)O [Asp, aspartate]	
